pKi: −log10 of the molar value.
Columns and labels:
[1] = target: T1, CCR9 (Homo sapiens (Human), UniProt P51686); experiment: FLIPR calcium flux assay using hCCR9 over expressed cells (Chem1-hCCR9), TECK stimulation; format: cell-based; conditions: Chem1-hCCR9 overexpressing cells
Description: Biological Activity: FLIPR Assay Using hCCR9 Over Expressed Cells
A calcium flux assay was used to determine the ability of the compounds to interfere with the binding between CCR9 and its chemokine ligand (TECK) in Chem1-hCCR9 overexpressing cells. hCCR9 overexpressing cells were seeded (25,000 cells/well) into black Poly-D-Lysine coated clear bottom 96-well plates (BD Biosciences, Cat #356640) and incubated overnight at 37° C./5% CO2 in a humidified incubator. Media was aspirated and cells washed twice with 100 μL assay buffer (1×HBSS, 20 mM HEPES) containing 2.5 mM Probenecid. A 0.3× Fluo-4 NW calcium dye was prepared in assay buffer containing 5 mM Probenecid and stored in the dark. Each well was loaded with 100 μL of 0.3× Fluo-4 NW calcium dye and incubated at 37° C./5% CO2 for 60 minutes and then at room temperature for 30 minutes. A half-log serially diluted concentration response curve was prepared at a 3× final assay concentration for each compound (10 μM-0.1 nM final assay concentration) and 50 μL of the compound then transferred to the cells (150 μL final volume) for 60 minutes prior to stimulation (30 minutes at 37° C./5% CO2 and 30 minutes at room temperature). TECK was diluted to 4× its EC80 in assay buffer (containing 0.1% [w/v] bovine serum albumin [BSA]) and 50 μL dispensed through the fluorometric imaging plate reader (FLIPR) instrument to stimulate the cells (200 μL final volume). The increase in intracellular calcium levels was measured with the FLIPR instrument. The potency of the compound as a CCR9 antagonist was calculated as an IC50 using GraphPad Prism software (variable slope four parameter). The Ki of the compound was determined from the IC50 values using the following equation. IC50/1+(Agonist (TECK) conc. used in assay/EC50 of agonist (TECK) generated on day of experiment) Ki calculation: […]

[2] = target: T1, CCR9; experiment: FLIPR calcium flux assay using MOLT4 cells, TECK stimulation; format: cell-based; conditions: MOLT4 cells (human T-cell line)
Description: Biological Activity: FLIPR Assay Using MOLT4 Cells
A calcium flux assay was used to determine the ability of the compounds to interfere with the binding between CCR9 and its chemokine ligand (TECK) in MOLT4 cells (a human T-cell line). MOLT4 cells were seeded (100,000 cells/well) in corning cell culture plates (Cat #3603) in assay buffer (1×HBSS, 20 mM HEPES) containing 2.5 mM Probenecid. The plate was centrifuged at 1200 rpm for 3 minutes and incubated at 37° C./5% CO2 for 2 hours. A 0.3× Fluo-4 NW calcium dye was prepared in assay buffer containing 5 mM Probenecid and stored in the dark. Each well was loaded with 25 μl of 0.3× Fluo-4 NW calcium dye and incubated at 37° C./5% CO2 for 60 minutes and then at room temperature for 30 minutes. A half-log serially diluted concentration response curve was prepared at a 4× concentration for each (10 μM-0.1 nM final assay concentration) and 25 μL of the compound then transferred to the cells (100 μL final volume) for 60 minutes prior to stimulation (30 minutes at 37° C./5% CO2 and 30 minutes at room temperature). […] The increased in intracellular calcium levels was measured with the FLIPR instrument. The potency of the compound as CCR9 antagonist was calculated as an IC50 using GraphPad Prism software (variable slope four parameter). The Ki of the compound was determined from the IC50 values using the following equation. IC50/1+(Agonist (TECK) conc. used in assay/EC50 of agonist (TECK) generated on day of experiment) Ki calculation: […]

T1 sequence (P51686 whole entry): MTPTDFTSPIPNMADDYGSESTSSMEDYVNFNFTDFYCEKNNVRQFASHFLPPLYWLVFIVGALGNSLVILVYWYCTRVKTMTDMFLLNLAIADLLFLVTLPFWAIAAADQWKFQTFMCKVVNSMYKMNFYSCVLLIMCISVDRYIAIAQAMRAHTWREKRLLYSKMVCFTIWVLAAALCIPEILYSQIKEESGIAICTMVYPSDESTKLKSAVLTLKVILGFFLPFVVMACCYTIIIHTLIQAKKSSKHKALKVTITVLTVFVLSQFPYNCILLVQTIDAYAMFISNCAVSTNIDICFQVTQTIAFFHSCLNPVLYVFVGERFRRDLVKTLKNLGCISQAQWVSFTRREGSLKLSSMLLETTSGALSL

| Structure (SMILES) | pKi [1] | pKi [2] |
| --- | --- | --- |
| COc1ccc(N2C(=O)c3c(Cl)ccc(NS(=O)(=O)c4ccc(C(C)(C)C)cc4)c3C2=O)c(C)n1 [Compound 238] | 7.89 | 7.85 |
| COc1cc[n+]([O-])cc1N1C(=O)c2c(Cl)ccc(NS(=O)(=O)c3ccc(C(C)(C)C)cc3)c2C1=O [Compound 189] | 7.47 | 8.10 |
| Cc1c(N2C(=O)c3c(Cl)ccc(NS(=O)(=O)c4ccc(C(C)(C)C)cc4)c3C2=O)ccc[n+]1[O-] [Compound 176, 3-(4-(4-(tert-butyl)phenylsulfonamido)-7-chloro-1,3-dioxoisoindolin-2-yl)-2-methylpyridine 1-oxide] | 7.89 | 8.22 |
| CC(C)(C)c1ccc(S(=O)(=O)Nc2cccc3c2C(=O)N(c2cccnc2)C3=O)cc1 [Compound 1, 4-tert-Butylphenylsulfonic acid (1,3-dioxo-2-(pyridin-3-yl)-2,3-dihydro-1H-isoindol-4-yl)-amide] | 5.91 | 6.32 |
| N#Cc1cccc(N2C(=O)c3c(Cl)ccc(NS(=O)(=O)c4ccc(C(F)(F)F)cc4)c3C2=O)c1 [Compound 121] | 6.47 | 6.72 |
| CC(C)(C)c1ccc(S(=O)(=O)Nc2ccc(Cl)c3c2C(=O)N(c2cccc(C#N)c2)C3=O)cc1 [Compound 120, 4-(tert-butyl)-N-(7-chloro-2-(3-cyanophenyl)-1,3-dioxoisoindolin-4-yl)benzenesulfonamide] | 7.05 | 7.13 |
| CCOc1cc(N2C(=O)c3c(Cl)ccc(NS(=O)(=O)c4ccc(C(C)(C)C)cc4)c3C2=O)c[n+]([O-])c1 [Compound 197] | 7.40 | 7.68 |
| CC(C)(C)c1ccc(S(=O)(=O)Nc2ccc(Cl)c3c2C(=O)N(Cc2ccncc2)C3=O)cc1 [Compound 201] | 7.77 | 8.10 |
| COc1ccc(CN2C(=O)c3c(Cl)ccc(NS(=O)(=O)c4ccc(C(C)(C)C)cc4)c3C2=O)cn1 [Compound 235] | 7.03 | 6.91 |
| CC(C)(C)c1ccc(S(=O)(=O)Nc2ccc(Cl)c3c2C(=O)N(c2ccc(F)cn2)C3=O)cc1 [Compound 219] | 7.52 | 8.00 |
| CC(C)(C)c1ccc(S(=O)(=O)Nc2ccc(Cl)c3c2C(=O)N(Cc2cccc(C#N)c2)C3=O)cc1 [Compound 126, 4-(tert-butyl)-N-(7-chloro-2-(3-cyanobenzyl)-1,3-dioxoisoindolin-4-yl)benzenesulfonamide] | 6.46 | 6.80 |
| O=C1c2c(Cl)ccc(NS(=O)(=O)c3ccc(C(F)(F)F)cc3)c2C(=O)N1Cc1cccnc1 [Compound 66] | 6.57 | 6.94 |
| COc1ccncc1N1C(=O)c2c(Cl)ccc(NS(=O)(=O)c3ccc(C(C)(C)C)cc3)c2C1=O [Compound 119] | 7.46 | 8.70 |
| Cc1cncc(N2C(=O)c3c(Cl)ccc(NS(=O)(=O)c4ccc(C(C)(C)C)cc4)c3C2=O)n1 [Compound 220] | 7.38 | 7.92 |
| COc1c[n+]([O-])cc(N2C(=O)c3c(Cl)ccc(NS(=O)(=O)c4ccc(C(C)(C)C)cc4)c3C2=O)c1C [Compound 245] | 7.27 | 7.33 |
| CC(C)(C)c1ccc(S(=O)(=O)Nc2ccc(Cl)c3c2C(=O)N(c2cc(F)ccn2)C3=O)cc1 [Compound 276] | 7.04 | 7.66 |
| CC(Cc1cccnc1)N1C(=O)c2c(Cl)ccc(NS(=O)(=O)c3ccc(C(C)(C)C)cc3)c2C1=O (stereo not shown) [Compound 196] | 6.99 | 7.34 |
| CC(C)(C)c1ccc(S(=O)(=O)Nc2ccc(Cl)c3c2C(=O)N(c2cccnn2)C3=O)cc1 [Compound 203] | 7.23 | 7.42 |
| COc1ccc(N2C(=O)c3c(Cl)ccc(NS(=O)(=O)c4ccc(C(C)(C)C)cc4)c3C2=O)c(C)[n+]1[O-] [Compound 243] | 6.94 | 7.47 |

| Structure (SMILES) | pKi [1] | pKi [2] |
| --- | --- | --- |
| CCc1c(OC)cncc1N1C(=O)c2c(Cl)ccc(NS(=O)(=O)c3ccc(C(C)(C)C)cc3)c2C1=O [Compound 257] | 7.68 | 7.60 |
| CC(C)(C)c1ccc(S(=O)(=O)Nc2ccc(Cl)c3c2C(=O)N(c2ccccn2)C3=O)cc1 [Compound 222] | 7.92 | 8.22 |
| COc1cncc(N2C(=O)c3c(Cl)ccc(NS(=O)(=O)c4ccc(C(C)(C)C)cc4)c3C2=O)c1 [Compound 90, 4-(tert-butyl)-N-(7-chloro-2-(5-methoxypyridin-3-yl)-1,3-dioxoisoindolin-4-yl)benzenesulfonamide] | 6.76 | 7.66 |
| CC(C)(C)c1ccc(S(=O)(=O)Nc2ccc(Cl)c3c2C(=O)N(c2cccc(C#N)n2)C3=O)cc1 [Compound 207] | 7.44 | 7.52 |
| COc1cncc(N2C(=O)c3c(C#N)ccc(NS(=O)(=O)c4ccc(C(C)(C)C)cc4)c3C2=O)c1 [Compound 278] | 7.77 | 8.00 |
| CC(C)(C)c1ccc(S(=O)(=O)Nc2ccc(Cl)c3c2C(=O)N(Cc2cccnc2)C3=O)cc1 [Compound 64, 4-(tert-butyl)-N-(7-chloro-1,3-dioxo-2-(pyridin-3-ylmethyl)isoindolin-4-yl)benzenesulfonamide] | 7.57 | 7.66 |
| Cn1nnc(N2C(=O)c3c(Cl)ccc(NS(=O)(=O)c4ccc(C(C)(C)C)cc4)c3C2=O)n1 [Compound 234] | 7.37 | 7.35 |
| Cc1ccc(CN2C(=O)c3c(Cl)ccc(NS(=O)(=O)c4ccc(C(C)(C)C)cc4)c3C2=O)[n+]([O-])c1 [Compound 259] | 7.35 | 7.89 |
| CCOc1cncc(N2C(=O)c3c(Cl)ccc(NS(=O)(=O)c4ccc(C(C)(C)C)cc4)c3C2=O)c1 [Compound 103] | 6.62 | 6.89 |
| CC(C)(C)c1ccc(S(=O)(=O)Nc2ccc(Cl)c3c2C(=O)N(c2cccc[n+]2[O-])C3=O)cc1 [Compound 274] | 7.30 | 7.47 |
| Cc1cnc(C)c(N2C(=O)c3c(Cl)ccc(NS(=O)(=O)c4ccc(C(C)(C)C)cc4)c3C2=O)c1 [Compound 263] | 7.60 | 7.96 |
| Cc1ccnc(N2C(=O)c3c(Cl)ccc(NS(=O)(=O)c4ccc(C(C)(C)C)cc4)c3C2=O)c1 [Compound 225] | 7.29 | 7.27 |
| CC(C)(C)c1ccc(S(=O)(=O)Nc2ccc(Cl)c3c2C(=O)N(c2cc(C#N)ccn2)C3=O)cc1 [Compound 200] | 7.04 | 7.35 |
| Cc1ccncc1CN1C(=O)c2c(Cl)ccc(NS(=O)(=O)c3ccc(C(C)(C)C)cc3)c2C1=O [Compound 208] | 7.80 | 7.62 |
| CC(C)(C)c1ccc(S(=O)(=O)Nc2ccc(Cl)c3c2C(=O)N(Cc2cccc[n+]2[O-])C3=O)cc1 [Compound 199] | 8.00 | 8.22 |
| CCOC(=O)c1c(N2C(=O)c3c(Cl)ccc(NS(=O)(=O)c4ccc(C(C)(C)C)cc4)c3C2=O)ccc[n+]1[O-] [Compound 290] | 7.85 | 8.15 |
| CCc1c(OC)c[n+]([O-])cc1N1C(=O)c2c(Cl)ccc(NS(=O)(=O)c3ccc(C(C)(C)C)cc3)c2C1=O [Compound 266] | 7.60 | 8.00 |
| COc1cc(CN2C(=O)c3c(Cl)ccc(NS(=O)(=O)c4ccc(C(C)(C)C)cc4)c3C2=O)c[n+]([O-])c1 [Compound 231] | 7.05 | 7.30 |
| CC(C)(C)c1ccc(S(=O)(=O)Nc2ccc(Cl)c3c2C(=O)N(Cc2cc[n+]([O-])cc2)C3=O)cc1 [Compound 209] | 7.11 | 7.52 |

Reference: patent US9969687B2, “Compounds useful as CCR9 modulators” (Norgine B.V., priority 2013, dated 2018)
